PMC7914897, “Cytotoxic Potential of a-Azepano- and 3-Amino-3,4-SeCo-Triterpenoids” (International Journal of Molecular Sciences, 2021)

What was measured:
[1] = tested on: A2780 (ovarian carcinoma); test: SRB cytotoxicity assay, 72 h; type: cell-based, human; conditions: Homo sapiens; A2780, 72 h, cut-off 30 µM; read-out: EC50
Outline: (§1)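 Seed, 24 h; compound 0–30 µM serial dilutions, 72 h (DMSO ≤0.5%); fix 10% TCA, 4 °C; stain 0.4% SRB ~20 min; 1% AcOH wash; solubilise 10 mM Tris; A570. EC50 vs untreated.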

[2] = tested on: A375 (malignant melanoma); test: SRB cytotoxicity assay, 72 h; type: cell-based, human; conditions: Homo sapiens, A-375, 72 h, A375, 72 h, cut-off 30 µM; read-out: EC50
Outline: as §1

[3] = tested on: FaDu (hypopharyngeal carcinoma); test: SRB cytotoxicity assay, 72 h; type: cell-based, human; conditions: Homo sapiens, cut-off 30 µM, read-out: EC50
Outline: as §1

[4] = tested on: HT29 (colorectal carcinoma); test: SRB cytotoxicity assay, 72 h; type: cell-based, human; conditions: Homo sapiens, HT-29; HT29, 72 h, cut-off 30 µM; read-out: EC50
Outline: as §1

MCF-7 (breast carcinoma) = test: SRB cytotoxicity assay, 72 h; type: cell-based, human; conditions: Homo sapiens, MCF7; MCF-7, 72 h, cut-off 30 µM; read-out: EC50
Outline: as §1

[5] = tested on: NIH 3T3 (non-malignant mouse fibroblasts); test: SRB cytotoxicity assay, 72 h; type: cell-based; conditions: Mus musculus, NIH3T3; NIH 3T3, 72 h, cut-off 30 µM; read-out: EC50
Outline: as §1

Melanoma subpanel = test: NCI-60 screen, subpanel; conditions: Homo sapiens
Ovarian Cancer subpanel = test: NCI-60 screen, subpanel; conditions: Homo sapiens
CCRF-CEM (Leukemia) = test: NCI-60 screen (SRB, 48 h); conditions: Homo sapiens
[6] = tested on: A549/ATCC (NSC lung cancer); test: NCI-60 screen (SRB, 48 h); conditions: Homo sapiens
HOP-62 (NSC lung cancer) = test: NCI-60 screen (SRB, 48 h); conditions: Homo sapiens
[7] = tested on: NCI-H522 (NSC lung cancer); test: NCI-60 screen (SRB, 48 h); conditions: Homo sapiens
HCT-116 (Colon cancer) = test: NCI-60 screen (SRB, 48 h); conditions: Homo sapiens
HT29 (Colon cancer) = test: NCI-60 screen (SRB, 48 h); conditions: Homo sapiens
SW-620 (Colon cancer) = test: NCI-60 screen (SRB, 48 h); conditions: Homo sapiens
SF-268 (CNS cancer) = test: NCI-60 screen (SRB, 48 h); conditions: Homo sapiens
SNB-75 (CNS cancer) = test: NCI-60 screen (SRB, 48 h); conditions: Homo sapiens
UACC-62 (Melanoma) = test: NCI-60 screen (SRB, 48 h); conditions: Homo sapiens
786-0 (Renal cancer) = test: NCI-60 screen (SRB, 48 h); conditions: Homo sapiens
A498 (Renal cancer) = test: NCI-60 screen (SRB, 48 h); conditions: Homo sapiens
ACHN (Renal cancer) = test: NCI-60 screen (SRB, 48 h); conditions: Homo sapiens
TK-10 (Renal cancer) = test: NCI-60 screen (SRB, 48 h); conditions: Homo sapiens
DU-145 (Prostate cancer) = test: NCI-60 screen (SRB, 48 h); conditions: Homo sapiens
T-47D (Breast cancer) = test: NCI-60 screen (SRB, 48 h); conditions: Homo sapiens, T47D

Compound C=C(C)[C@@H]1CC[C@]2(C)[C@H](CC=C3[C@@H]4[C@@H](C)[C@H](C)CC[C@]4(CO)CC[C@]32C)[C@@]1(C)CCCN [Compound 19] has an EC50 [1] of 3300 ± 200 nM, an EC50 [2] of 2970 ± 200 nM and an EC50 [3] of 2950 ± 400 nM. The EC50 [4] was 1840 ± 200 nM, the EC50 (MCF-7 (breast carcinoma)) was 2050 ± 200 nM and the EC50 [5] was 4640 ± 600 nM. The IC (TGI) (Melanoma subpanel; 48 h, read-out: TGI MG_MID) was 3300 nM, the GI50 (Melanoma subpanel; read-out: GI50 MG_MID) was 1540 nM and the CC50 (Melanoma subpanel; read-out: LC50 MG_MID) was 7680 nM. The IC (TGI) (Ovarian Cancer subpanel; 48 h, read-out: TGI MG_MID) was 4200 nM, the GI50 (Ovarian Cancer subpanel; read-out: GI50 MG_MID) was 1570 nM and the CC50 (Ovarian Cancer subpanel; read-out: LC50 MG_MID) was 19700 nM. For the same compound, the GI50 (CCRF-CEM (Leukemia)) was 1310 nM, the IC (TGI) (CCRF-CEM (Leukemia); 48 h, read-out: TGI) was 5260 nM and the CC50 (CCRF-CEM (Leukemia); read-out: LC50) was greater than 50000 nM. It also gave a GI50 ([6]; A549) of 1590 nM, an IC (TGI) ([6]; A549, 48 h, read-out: TGI) of 5110 nM and a CC50 ([6]; A549, read-out: LC50) greater than 50000 nM. For the same compound, the GI50 (HOP-62 (NSC lung cancer); HOP-62) was 1080 nM, the IC (TGI) (HOP-62 (NSC lung cancer); HOP-62, 48 h, read-out: TGI) was 2360 nM and the CC50 (HOP-62 (NSC lung cancer); HOP-62, read-out: LC50) was greater than 50000 nM. It also gave a GI50 ([7]; NCI-H522) of 1040 nM, an IC (TGI) ([7]; NCI-H522, 48 h, read-out: TGI) of 2170 nM and a CC50 ([7]; NCI-H522, read-out: LC50) of 4540 nM. The GI50 (HCT-116 (Colon cancer); HCT-116) was 810 nM, the IC (TGI) (HCT-116 (Colon cancer); HCT-116, 48 h, read-out: TGI) was 1540 nM and the CC50 (HCT-116 (Colon cancer); HCT-116, read-out: LC50) was 2930 nM. The GI50 (HT29 (Colon cancer); HT-29) was 990 nM, the IC (TGI) (HT29 (Colon cancer); HT-29, 48 h, read-out: TGI) was 2040 nM and the CC50 (HT29 (Colon cancer); HT-29, read-out: LC50) was 4220 nM. The GI50 (SW-620 (Colon cancer); SW-620) was 1010 nM, the IC (TGI) (SW-620 (Colon cancer); SW-620, 48 h, read-out: TGI) was 2110 nM and the CC50 (SW-620 (Colon cancer); SW-620, read-out: LC50) was 4390 nM. The GI50 (SF-268 (CNS cancer); SF-268) was 1220 nM, the IC (TGI) (SF-268 (CNS cancer); SF-268, 48 h, read-out: TGI) was 2690 nM and the CC50 (SF-268 (CNS cancer); SF-268, read-out: LC50) was 14800 nM. For the same compound, the GI50 (SNB-75 (CNS cancer); SNB-75) was 850 nM, the IC (TGI) (SNB-75 (CNS cancer); SNB-75, 48 h, read-out: TGI) was 3620 nM and the CC50 (SNB-75 (CNS cancer); SNB-75, read-out: LC50) was 17100 nM. For the same compound, the GI50 (UACC-62 (Melanoma); UACC-62) was 5820 nM, the IC (TGI) (UACC-62 (Melanoma); UACC-62, 48 h, read-out: TGI) was 12600 nM and the CC50 (UACC-62 (Melanoma); UACC-62, read-out: LC50) was 27300 nM. The GI50 (786-0 (Renal cancer); 786-0) was 840 nM, the IC (TGI) (786-0 (Renal cancer); 786-0, 48 h, read-out: TGI) was 1580 nM and the CC50 (786-0 (Renal cancer); 786-0, read-out: LC50) was 2970 nM. For the same compound, the GI50 (A498 (Renal cancer); A498) was 3830 nM, the IC (TGI) (A498 (Renal cancer); A498, 48 h, read-out: TGI) was 11200 nM and the CC50 (A498 (Renal cancer); A498, read-out: LC50) was 27700 nM. The GI50 (ACHN (Renal cancer)) was 1420 nM, the IC (TGI) (ACHN (Renal cancer); 48 h, read-out: TGI) was 3400 nM and the CC50 (ACHN (Renal cancer); read-out: LC50) was 17000 nM. It also gave a GI50 (TK-10 (Renal cancer); TK-10) of 2210 nM, an IC (TGI) (TK-10 (Renal cancer); TK-10, 48 h, read-out: TGI) of 9750 nM and a CC50 (TK-10 (Renal cancer); TK-10, read-out: LC50) of 24600 nM. For the same compound, the GI50 (DU-145 (Prostate cancer); DU-145) was 1210 nM, the IC (TGI) (DU-145 (Prostate cancer); DU-145, 48 h, read-out: TGI) was 3010 nM and the CC50 (DU-145 (Prostate cancer); DU-145, read-out: LC50) was 11300 nM. The GI50 (T-47D (Breast cancer)) was 1510 nM, the IC (TGI) (T-47D (Breast cancer); 48 h, read-out: TGI) was 5150 nM and the CC50 (T-47D (Breast cancer); read-out: LC50) was greater than 50000 nM.
